Data published in the supplement of paper PMC10307832.

Compound: C#Cc1cccc(Nc2ncnc3cc(OC)c(OCCCCCCC(=O)NO)cc23)c1 [CUDC-101]
Assay: relative viability (nuclei count vs DMSO), 5 days (fraction); higher = more cells survive
Summary of the method: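 After an overnight hold at 37 °C, lung cancer cell lines in 1536-well plates were pinned with five library-drug doses (not always all listed), each √10 from the next, on vehicle-anchored plates. The cells stayed 5 days without fresh medium, then a one-step fix, permeabilisation and Hoechst stain preceded 4× imaging and MetaXpress nuclear counts. A plate passed only with control CV under 25% and at least one doubling. Viability is the median, over plates, of treated-well nuclei relative to vehicle-well nuclei.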

Cell Line: UMC-11
- relative viability (0.01 µM): 1.03
- relative viability (0.03162 µM): 0.957
- relative viability (0.1 µM): 0.927
- relative viability (0.3162 µM): 0.705
- relative viability (1 µM): 0.31
